Laboratory results as given in PubChem BioAssay AID1625 (Sanford-Burnham Center for Chemical Genomics, 2009).
Activity calls are given as the source filed them.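 Rule for the calls: active = z-score above 3 at 5 µM with at least 500 cells counted in the well; inconclusive = wells under 500 cells, flagged as cytotoxic or low count; inactive = the rest.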

Each molecule was assayed on MIN6 insulin promoter-GFP reporter, high-content imaging (assay: insulin promoter activators in MIN6 cells, imaging, high-content screening, mouse beta cells (AID 1625)).

Structure (SMILES) | EC50
COc1ccc(CN2C(=O)/C(=C/c3ccc(-c4ccc(Cl)c(C(=O)O)c4)o3)SC2=S)cc1 | 15.4 µM (inactive)
Cc1ccc(N2C(=O)C3C(C(=O)c4ccccc4)=NN(c4ccccc4)C3C2=O)cc1 (configuration not stated) | 12.6 µM (inactive)
CCCSc1nc2sc3c(c2c(=O)[nH]1)CCN(Cc1ccccc1)C3 | > 16 µM (inactive)
Cc1c2ccccc2nc2c(F)c(NC(C)C)c(F)c(F)c12 | > 16 µM (inactive)
CCN1C(=O)/C(=C/C=C2\N(CC)c3cc(S(=O)(=O)N(C)C)ccc3N2c2ccccc2)SC1=S | 6.67 µM
COc1ccc2nc(SCC(C)=O)c(C#N)cc2c1 | 8.2 µM
O=C(O)c1ccccc1N/N=C/c1c(Sc2nnnn2-c2ccccc2)nc2ccccn2c1=O | 5.97 µM
O=[N+]([O-])c1ccc(-c2ccc(/C=N/Nc3nc(N4CCCCC4)nc(N4CCCCC4)n3)o2)cc1 | > 16 µM (inactive)
COc1ccc(C(=O)/C=C/c2ccc(N(C)C)cc2)c(OC)c1 | 6.31 µM
CCOC(=O)CC1C(=O)NCCN1c1nc2ccc(C)cn2c(=O)c1/C=C1\SC(=S)N(C(C)CC)C1=O (configuration not stated) | 0.748 µM
CCN(CC)c1ccc(/C=C/C(=O)c2ccc(Br)cc2)cc1 | 7.06 µM
N=c1oc2c3c4c(cc2cc1C(=O)Nc1ccccc1)CCCN4CCC3 | 0.699 µM
CCN1CCc2c(sc(NC(=O)Nc3ccc(Cl)c(Cl)c3)c2C(N)=O)C1 | 1.4 µM
Cc1cc(C)cc(N=Cc2[nH]c3ccc(Br)c(Cl)c3c2O)c1 | 3.42 µM
O=C(/C=C/c1ccc(N2CCC(c3ccccc3)=N2)cc1)c1ccccc1 | 2.6 µM
O=C(C1=C(O)C(=O)N(c2nccs2)C1c1ccccc1)c1cc2ccccc2o1 (configuration not stated) | 13.3 µM (inactive)
CCOCCCNc1nc2c(C)cccn2c(=O)c1/C=C1\SC(=S)N(CC(C)C)C1=O | > 16 µM (inactive)
CC(C)(C)C(=O)c1sc2nc(-c3cccs3)cc(C(F)(F)F)c2c1N | > 16 µM (inactive)
COc1cc2c(cc1OC)C1=CC(=O)C(=O)N1C(C)(C)C2 | 11.5 µM (inactive)
Cc1cccc(NC(=O)/C=C/c2ccc([N+](=O)[O-])s2)c1 | > 16 µM (inactive)
CN(C)c1ccc(/C=C2\SC(=S)N(Nc3ncc(C(F)(F)F)cc3Cl)C2=O)cc1 | 2.55 µM
O=[N+]([O-])c1ccc(-c2ccc(/C=N/Nc3nc(NCc4ccccc4)nc(N4CCOCC4)n3)o2)cc1 | > 16 µM (inactive)
COc1ccc(C(=O)c2sc3nc(-c4ccccc4)ccc3c2N)cc1OC | > 16 µM (inactive)
CC(C)(C)NC(=S)N/N=C\c1ccc(-c2ccc([N+](=O)[O-])cc2)o1 | 14.3 µM (inactive)
CNC(=O)c1c(NC(=O)c2ccc(S(=O)(=O)N3CCCc4ccccc43)cc2)sc2c1CCN(C)C2 | > 16 µM (inactive)

Structure (SMILES) | EC50
CCN(CC)c1ccc(/C=C2\SC(=O)N(C(C)C)C2=O)o1 | 4.61 µM
CC(C)N1CCc2c(sc(NC(=O)c3ccc(S(=O)(=O)N4CCc5ccccc54)cc3)c2C(N)=O)C1 | > 16 µM (inactive)
COc1ccc(-c2ccc3c(N)c(C(=O)c4cccc(OC)c4)sc3n2)cc1 | > 16 µM (inactive)
CCOC(=O)CC1C(=O)NCCN1c1nc2c(C)cccn2c(=O)c1/C=C1\SC(=S)N(C(C)CC)C1=O (configuration not stated) | 7.29 µM
CCCCn1c(O)c(C(=O)/C=C/c2c[nH]c3ccccc23)c(=O)[nH]c1=O | > 16 µM (inactive)
CSc1c(C#N)c(N)nc2sc(C(=O)c3ccc(Cl)c(Cl)c3)c(N)c12 | > 16 µM (inactive)
Cc1cccn2c(=O)c(/C=C3\SC(=S)N(CC(C)C)C3=O)c(NCCCOC(C)C)nc12 | > 16 µM (inactive)
CN(C)c1ccc(/C=C2\CCC/C(=C\c3ccccc3)C2=O)cc1 | > 16 µM (inactive)
CC1CCCCC1NC(=O)COC(=O)c1c2c(nc3ccccc13)/C(=C/c1ccco1)CC2 (configuration not stated) | > 16 µM (inactive)
CC(=O)Cc1cc(O)c2ccccc2c1OC(=O)c1ccc(Br)cc1 | > 16 µM (inactive)
CN1CCS/C1=C/C=C1/SC(=S)N(Cc2ccccc2)C1=O | > 16 µM (inactive)
O=C1c2cccc3c(O)ccc(c23)C(=O)N1Cc1ccco1 | 13.7 µM (inactive)
C=CCN1C(=O)/C(=C/C=C2/N(CC)c3ccc(S(=O)(=O)N(C)C)cc3N2CC)SC1=S | > 16 µM (inactive)
Nc1c(C(=O)c2ccc(Cl)cc2)sc2nsc(SCCN3CCOCC3)c12 | 5.95 µM
CCN1CCN(C2=CC3=CC(=C(C#N)C#N)CCC3CC2)CC1 (configuration not stated) | 2.79 µM
O=C1S/C(=C\c2ccc(N3CCOCC3)o2)C(=O)N1Cc1c(F)cccc1Cl | 0.976 µM
Cc1ccc(-c2cn3nc(-c4ccccc4)c(-c4ccccc4)nc3n2)cc1 | 12.4 µM (inactive)
CCCN1C(=O)/C(=C/c2c(NCCCOC(C)C)nc3c(C)cccn3c2=O)SC1=S | > 16 µM (inactive)
CN1CC=C2C(C#N)=C(N)C(C#N)(C#N)[C@H](c3ccoc3)[C@H]2C1 | 11.2 µM (inactive)
CC(=O)Nc1ccc(N=Cc2c(O)c(C(=O)Nc3ccccc3)cc3ccccc23)cc1 | > 16 µM (inactive)
CCc1cccc2cc3c(N)c(C(=O)Nc4ccc(S(=O)(=O)N5CCCC5)cc4)sc3nc12 | 10.2 µM (inactive)
CCN(CC)c1ccc2cc(-c3nc(-c4ccc(OC)cc4)cs3)c(=O)oc2c1 | < 0.25 µM
CCCCCn1nc(-c2ccccc2)c2nc3ccccc3nc21 | 8.72 µM
Cc1ccc(CNc2ccc3c(c2)OCO3)cc1 | > 16 µM (inactive)
Oc1c(C=NCc2ccc(F)cc2)[nH]c2ccc(Br)c(Cl)c12 | > 16 µM (inactive)

Structure (SMILES) | EC50
CCCN1C(=O)c2cccc3c(N4CCCCC4)ccc(c23)C1=O | > 16 µM (inactive)
CN1/C(=C\C=C2/SC(=S)NC2=O)C(C)(C)c2ccccc21 | 9.29 µM
CN1/C(=C\C=C(/C#N)C(=O)Nc2ccc(Cl)cc2)C(C)(C)c2ccccc21 | > 16 µM (inactive)
COc1ccc(CN=Cc2[nH]c3ccc(Br)c(Cl)c3c2O)cc1 | > 16 µM (inactive)
N#C/C(=C/c1ccc(N2CCOCC2)o1)c1nc2ccccc2[nH]1 | 7.76 µM
COc1cc([C@@H]2[C@H]3CN(C)CC=C3C(C#N)=C(N)C2(C#N)C#N)cc2c1OCO2 | 8.67 µM
CC(=O)c1cc(NC(=O)c2ccc(Cl)cc2)c(=O)oc1/C=C/N(C)C | > 16 µM (inactive)
CCN(CC)c1ccc(/C=C(/C#N)c2nc3ccc(C)cc3[nH]2)c(OC(C)C)c1 | 2.87 µM
CCCN1CCc2c(sc(NC(=S)NC(=O)c3ccccc3)c2C#N)C1 | 7.92 µM
CC(=O)C1=C(C)NC(SCC(=O)c2ccc(Cl)c(Cl)c2)=C(C#N)C1c1ccco1 (configuration not stated) | > 16 µM (inactive)
CCN1CCc2c(sc(NC(=S)NC(=O)c3ccc(Cl)cc3)c2C(N)=O)C1 | 14.1 µM (inactive)
CN1CC=C2C(C#N)=C(N)C(C#N)(C#N)C(c3ccsc3)C2C1 (configuration not stated) | 10.4 µM (inactive)
Nc1c(C(=O)C2CC2)sc2nc(-c3cccs3)cc(C(F)(F)F)c12 | 4.16 µM
C=CCN1C(=O)/C(=C/c2ccc(N(C)C)cc2)S/C1=N\c1nnc(CC)s1 | 3.86 µM
N#Cc1c(-c2ccco2)cc(C2CC2)nc1SCC(=O)c1ccccc1 | > 16 µM (inactive)
COC(=O)c1cc(NC(=O)c2ccccc2)c(=O)oc1/C=C/Nc1ccc(Oc2ccccc2)cc1 | 6.49 µM
O=[N+]([O-])c1ccc(N(c2ccccc2)c2ccccc2)cc1 | > 16 µM (inactive)
CC(=O)c1c(N2CCOCC2)[nH]c(-c2ccccc2)nc1=S | 13.5 µM (inactive)
O=S(=O)([O-])CCC[n+]1c(/C=C\Nc2ccccc2)oc2ccc(-c3ccccc3)cc21 | 3.34 µM
Cc1ccc(C(=O)NN2C(=O)/C(=C/c3cn(C)c4ccccc34)SC2=S)cc1 | > 16 µM (inactive)
COc1cc2c3nnc(-c4ccc(F)cc4)c-3cn(Cc3ccccc3)c2cc1OC | 2.89 µM
CN1C2CCC1/C(=C/c1cccn1C)C(=O)/C2=C\c1cccn1C | > 16 µM (inactive)
O=[N+]([O-])c1ccc(N2N=C(c3ccco3)CC2c2ccccc2)cc1 (configuration not stated) | > 16 µM (inactive)
Cc1oc(C)c2c(=O)ccc3c(c12)OC(N)=C(C#N)C3c1ccccc1 (configuration not stated) | > 16 µM (inactive)
O=[N+]([O-])c1ccc(N/N=C/c2cn(Cc3ccc(F)cc3)c3ccccc23)nc1 | > 16 µM (inactive)

Structure (SMILES) | EC50
CC(=O)Oc1ccc2c(c1)Oc1cc(OC(C)=O)ccc1C21OC(=O)c2ccccc21 | 0.439 µM
CCCN1C=CC(=C/C=C(\C#N)C(=O)OCC)C=C1 | > 16 µM (inactive)
CC(C)NC(=O)/C(C#N)=C/c1ccc(N(C)C)o1 | 8.07 µM
COc1ccccc1NS(=O)(=O)c1cc([N+](=O)[O-])ccc1N/N=C/c1sc(N2CCOCC2)nc1-c1ccccc1 | 1.83 µM
CC(C)(C)c1ccc(OCC(=O)Nc2ccc3c4c(cccc24)C(=O)NC3=O)cc1 | > 16 µM (inactive)
CCCC1C2CN(C(C)C)CC=C2C(C#N)=C(N)C1(C#N)C#N (configuration not stated) | 5.53 µM
C=CCN1C=CC(=CC=C(C#N)C#N)C=C1 | 10.4 µM (inactive)
CN1C=CC2=C(C#N)C(N)C(C#N)(C#N)C(c3ccccc3)C2C1 (configuration not stated) | 7.42 µM
CCN(CC)c1ccc(/C=N/c2sc3c(c2C#N)C2CCN3CC2)c(O)c1 | 2.83 µM
CCN(CC)C(=O)c1sc2nc(-c3cccs3)cc(-c3cccs3)c2c1N | > 16 µM (inactive)
CCN(CC)c1ccc2cc(C(=O)Nc3ccccn3)c(=O)oc2c1 | > 16 µM (inactive)
CCCCOc1ccc(-c2cc(C(F)(F)F)c(C#N)c(SCC(=O)O)n2)cc1 | > 16 µM (inactive)
CC(=O)c1ccc2cccc3c2c1N=CN3C | > 16 µM (inactive)
COC(=O)c1cc2c(-c3ccccc3)c(C)c3ccccn3c-2c1C(=O)OC | > 16 µM (inactive)
Cc1ccc(/C=[N+](\[O-])c2ccc(N(C)C)cc2)c2nsnc12 | > 16 µM (inactive)
Cc1cc(/C=C2\NC(=S)N(C)C2=O)ccc1N1CCCC1 | 8.97 µM
CN(C)c1ccc(/C=C/C(O)=C2/C(=O)N(C)C3(C)CC2c2ccccc2O3)cc1 (configuration not stated) | > 16 µM (inactive)
Cc1nonc1NC(=O)CSc1nc2c(C)cccc2cc1C#N | > 16 µM (inactive)
N#Cc1c(NC(=S)NC(=O)c2ccccc2)sc2c1CCN(CCc1ccccc1)C2 | 7.1 µM
Cn1cc(/C=C2\SC(=S)N(NC(=O)c3ccccc3)C2=O)c2ccccc21 | > 16 µM (inactive)
CCCCN1C(=O)/C(=C/C=C2\Oc3ccccc3N2CC)SC1=S | 0.958 µM
Nc1c(C(=O)C2CC2)sc2nc(-c3ccccc3)cc(C(F)(F)F)c12 | 8.81 µM
